Reference: ChEMBL document CHEMBL2040731, “Synthesis and anti-HIV activity of lupane and olean-18-ene derivatives. Absolute configuration of 19,20-epoxylupanes by VCD” (J Nat Prod, 2012)
The source made the active and inactive calls. The rule behind the calls is not given here.

How the values were obtained:
[1] = test system: HeLa; experiment: Inhibition of R5-tropic HIV1 envelope glycoprotein-mediated cell-cell fusion between viral envelope expressing human virus-infected HeLa ADA cells to human HeLa P5 cells at 5 uM after 16 hrs by beta-galactosidase reporter gene assay using chemiluminescence method; assay type: cell-based; settings: Human immunodeficiency virus 1
[2] = test system: HeLa; experiment: Inhibition of X4-tropic HIV1 envelope glycoprotein-mediated cell-cell fusion between viral envelope expressing human virus-infected HeLa ADA cells to human HeLa P5 cells at 5 uM after 16 hrs by beta-galactosidase reporter gene assay using chemiluminescence method; assay type: cell-based; settings: Human immunodeficiency virus 1

SMILES	inhibition [1]	inhibition [2]
CC1(C)C=C2[C@H]3CC[C@@H]4[C@@]5(C)CC[C@H](O)C(C)(C)[C@@H]5CC[C@@]4(C)[C@]3(C)CC[C@@]2(C)CC1	inactive	inactive
C=C(C)[C@@H]1CC[C@]2(C)CC[C@]3(C)[C@H](CC[C@@H]4[C@@]5(C)CC/C(=N\O)C(C)(C)[C@@H]5CC[C@]43C)[C@@H]12	7%	23%
CC(=O)O[C@H]1CC[C@]2(C)[C@H]3CC[C@@H]4[C@]56O[C@H]5C(C)(C)CC[C@]6(C)CC[C@@]4(C)[C@]3(C)CC[C@H]2C1(C)C	inactive	inactive
C=C(C=O)[C@@H]1CC[C@]2(C)CC[C@]3(C)[C@H](CC[C@@H]4[C@@]5(C)C=CC(=O)C(C)(C)[C@@H]5CC[C@]43C)[C@@H]12	28%	44%
C=C(C)[C@@H]1CC[C@]2(C)CC[C@]3(C)[C@H](CC[C@@H]4[C@@]5(C)CCC(=O)C(C)(C)[C@@H]5CC[C@]43C)[C@@H]12	inactive	inactive
C=C(C)[C@@H]1CC[C@]2(C)CC[C@]3(C)[C@H](CC[C@@H]4[C@@]5(C)CC[C@H](OC(C)=O)C(C)(C)[C@@H]5CC[C@]43C)[C@@H]12	31%	15%
C=C(C=O)[C@@H]1CC[C@]2(C)CC[C@]3(C)[C@H](CC[C@@H]4[C@@]5(C)CC[C@H](O)C(C)(C)[C@@H]5CC[C@]43C)[C@@H]12	inactive	inactive
CC(=O)O[C@H]1CC[C@]2(C)[C@H]3CC[C@@H]4[C@H]5[C@H]([C@@]6(C)CO6)CC[C@]5(C)CC[C@@]4(C)[C@]3(C)CC[C@H]2C1(C)C	26%	6%
C=C(C)[C@@H]1CC[C@]2(CO)CC[C@]3(C)[C@H](CC[C@@H]4[C@@]5(C)CC[C@H](O)C(C)(C)[C@@H]5CC[C@]43C)[C@@H]12	17%	34%
C=C(C=O)[C@@H]1CC[C@]2(CO)CC[C@]3(C)[C@H](CC[C@@H]4[C@@]5(C)CC[C@H](O)C(C)(C)[C@@H]5CC[C@]43C)[C@@H]12	26%	10%
C=C(C=O)[C@@H]1CC[C@]2(C)CC[C@]3(C)[C@H](CC[C@@H]4[C@@]5(C)CC[C@H](OC(C)=O)C(C)(C)[C@@H]5CC[C@]43C)[C@@H]12	41%	6%
C=C(C)[C@@H]1CC[C@]2(C)CC[C@]3(C)[C@H](CC[C@@H]4[C@@]5(C)CC[C@H](O)C(C)(C)[C@@H]5CC[C@]43C)[C@@H]12	inactive	inactive
